According to US20250352541A1, “THERAPEUTIC FOR CANCER REFRACTORY TO IMMUNE CHECKPOINT INHIBITOR” (Sumitomo Pharma Co., Ltd., priority 2022, published 2025):

Legend:
[1] = tested on: head and neck squamous cell carcinoma; details: head and neck squamous cell carcinoma (Non Patent Literature 7); cited from earlier work
[2] = tested on: ES-2 cells; experiment: Concomitantly used drug efficacy evaluation test using tumor-bearing mice transplanted with ES-2 cells (gemcitabine); format: in vivo, BALB/c-nu/nu mice; details: Peritoneal, 30 mg/kg, 14 days, 2 times/week
Excerpt: The test compound was weighed out.

[3] = tested on: neutrophils; details: 30 mg/kg, 14 days, 2 times/week, blood 96 hours after the final administration
Description: The test compound was weighed out. An empty liposome solution with a total lipid concentration of 50 mM was added so that the compound concentration would be 2 mg/mL, and 1 mol/L hydrochloric acid was added to adjust the pH to 6 to 7. Alternatively, 10 mM L-histidine buffer/10% sucrose solution (pH 6.5) and hydrochloric acid were added to the test compound to dissolve or disperse the compound, and an empty liposome solution with a total lipid concentration of 75 mM was added so that the compound concentration would be 2 mg/mL, and the pH was adjusted to 6 to 7.
Blood was collected 96 hours after the final administration to measure the neutrophil count.

[4] = molecular target: hERG current (Homo sapiens (Human), UniProt Q12809); experiment: hERG current blocking test; details: IC50 of hERG divided by IC50 of CHK1 inhibition
Description: The test compounds were added to cultured hERG (human Ether-a-go-go Related Gene) gene stably expressing CHO cell line cells to achieve 0.27 to 100 μM.

[5] = molecular target: CYP3A4 (Homo sapiens (Human), UniProt P08684); experiment: CYP3A4 MBI and enzyme inactivation clearance evaluation; format: in vitro ADME
Description: The effect and mode of inhibition of the test compound on CYP3A4 were evaluated using a human liver microsome as an enzyme source and midazolam or testosterone as a substrate. […] The IC50 value was calculated from a concentration plot.

[6] = molecular target: CHK1 (Homo sapiens (Human), UniProt O14757); experiment: CHK1 inhibitory activity test (IMAP TR-FRET)
Description: IMAP TR-FRET Screening Express Kit (R8160) was obtained from Molecular Devices. […] FAM-PKAtide (R7255, Molecular Devices) and FAM-Phospho-PKAtide (R7304, Molecular Devices) were admixed after dilution, and calibration standard systems for phosphorylation levels from 0 to 100% were created. 5 μL of a compound dissolved in a 0.4% DMSO solution was added to a 384 well plate. A compound study group to which 5 μL of each of CHK1, CHK1tide, and ATP was added, and a standard group to which 20 μL of standard was added were created, and subjected to a kinase reaction for 3 hours at 30° C. Subsequently, 60 μL of Binding Reagent (80% Buffer A, 20% Buffer B, 1:600 Binding Reagent, 1:400 Tb-Donor) was added for a binding reaction for 2 hours at room temperature.

[7] = Liposome encapsulation test (Test Example 6); format: physicochemical
Description: 6.48 g of hydrogenated soybean phosphatidylcholine (COATSOME NC-21E, NOF Corporation), 2.32 g of cholesterol (Sigma) and 2.06 g of distearoylphosphatidylethanolamine-methoxypolyethylene glycol 2000 (SUNBRIGHT DSPE-020CN, NOF Corporation) were dissolved in 560 mL of t-butyl alcohol heated to 65° C. The solution was frozen with dry ice/acetone bath and t-butyl alcohol was then removed by evaporation under reduced pressure to obtain a lipid mixture.
200 mL of 250 mM ammonium sulfate solution was added to the lipid mixture. The resulting mixture was heated to 65° C. and dispersed with a homogenizer (ULTRA-TURRAX, IKA) to obtain a crude liposome dispersion. […] The prepared amount was increased or decreased appropriately.
2 to 3 mg of the test compound was weighed out. […] An aqueous 1 mol/L hydrochloric acid or 1 mol/L sodium hydroxide solution was added to adjust the pH to 5.5 to 7. […] Insolubles, when present, were removed by centrifugation for 5 minutes at 15,000× g.
The liposome encapsulation ratio was calculated as follows.
100 μL of liposome solution was passed through an ultrafiltration filter (Amicon Ultra, 100K, 0.5 mL, Merck), and centrifuged at 4° C. at 15,000×g for 10 minutes. The concentration of the compound in the filtrate after ultrafiltration was measured by HPLC as the unencapsulated compound concentration.
The liposome solution was diluted with a trifluoroacetic acid/water/methanol mixture (0.1/25/75) and was left standing for 10 minutes or longer at 5° C. The solution was centrifuged for 5 minutes at 15,000× g to remove insolubles. The compound concentration in the supernatant was measured by HPLC as the compound concentration in the liposome solution.
The encapsulation ratio and the encapsulation efficiency were calculated by the following equations.
HPLC measurement conditions are the following.

[8] = Liposome encapsulation test of Example 1 (Test Example 6a); format: physicochemical
[9] = tested on: Human bone marrow CD34 positive hematopoietic stem cells; experiment: Human bone marrow cell colony formation test (hemotoxicological evaluation); format: cell-based; details: 100 nM; for Colony count (/well) mean: 48 hours, then about 2 weeks culture
Description: Human bone marrow CD34 positive hematopoietic stem cells were obtained from Lonza K.K. The frozen cells were thawed in a medium prepared by mixing a Methocult Express medium and a 10% fetal bovine serum with 1% penicillin/streptomycin containing RPMI 1640 medium at 9:1. 5000 cells were seeded per well in a 6 well plate and cultured overnight at 37° C. in the presence of 5% CO2. The evaluated compound was added so that the final concentration of DMSO would be 0.1% and 100 nM, and the cells were cultured for 48 hours. The cells were retrieved and washed with PBS. ⅙ of the amount of cells was seeded in a 12 well plate and cultured for about 2 weeks at 37° C. in the presence of 5% CO2. After completion of culture, the number of colonies formed was calculated using Thiazolyl blue tetrazolium bromide (MTT).

[10] = tested on: Human bone marrow CD34 positive hematopoietic stem cells; experiment: Human bone marrow cell myeloid lineage differentiation induction test; format: cell-based; details: 3 nM
Description: Human bone marrow CD34 positive hematopoietic stem cells were obtained from Lonza K. K. The frozen cells were thawed in a 1% fetal bovine serum containing IMDM medium and suspended in a Complete hemaTox® Myeloid Medium. 1000 cells were seeded per well in a 96-well plate. The evaluated compound was added so that the final concentration of DMSO would be 0.1% and 3 nM, and the cells were cultured for 7 days at 37° C. in the presence of 5% CO2. After completion of culture, half of the amount of cell suspension was retrieved from each well. The luminescence was measured using CellTiter-Glo® 3D Reagent (Promega, G968B) to calculate the cell survival percentage by the following equation.

[11] = tested on: ES-2 cells; experiment: Cell growth suppression experiment; format: cell-based
Description: ES-2 cells were obtained from the American Type Culture Collection (ATCC). These cells were cultured at 37° C. in the presence of 5% CO2 in a 10% fetal bovine serum, 1% penicillin/streptomycin containing McCoy's 5a medium.
500 cells were seeded for each well in a 384-well plate, and the evaluated compound was added so that the final concentration of DMSO would be 0.1% to culture the cells for 2 days. After completion of the culture, the cell viability rate was calculated using CellTiter-Glo® 3D Reagent (Promega, G968B).
The results of cell growth suppression test on representative compounds of the present disclosure are listed in the following table based on the ranking of I, IT, III, IV, and V (1000 nM<I, 1000 nM>TI>300 nM, 300 nM>III>100 nM, 100 nMV>IV>30 nM, 30 nM>V).

[12] = tested on: mouse renal cancer cells Renca; experiment: Intracytoplasmic ssDNA evaluation test in cells; format: cell-based; details: 24 hours treatment, versus DMSO
Description: (§1) After 24 hours from seeding of mouse breast cancer cells EMT6 and mouse renal cancer cells Renca, the cells were treated with Example 1 and DMSO and cultured for 24 hours. Thereafter, the cells were collected, and cytoplasmic components were extracted using NE-PER Nuclear and Cytoplasmic Extraction so Reagents (Thermo Fisher Scientific Inc.). After protein quantification and concentration adjustment, ssDNA was quantified using Qbit ssDNA Assay Kit (Thermo Fisher Scientific Inc.).

[13] = tested on: mouse breast cancer cells EMT6; experiment: Intracytoplasmic ssDNA evaluation test in cells; format: cell-based; details: EMT6, 24 hours treatment, versus DMSO
Description: as §1

[14] = molecular target: ARK5/NUAK1 (Homo sapiens (Human), UniProt O60285); experiment: Kinase selectivity test (HotSpot Full Panel Kinase profiling); format: biochemical; details: ARK5/NUAK1, compound 100 nM, ATP 10 μm; read-out: Residual activity (%)
[15] = concentration upon compound introduction 3 mg/mL
[16] = concentration upon compound introduction 2 mg/mL

CHK1, sequence (O14757 whole entry): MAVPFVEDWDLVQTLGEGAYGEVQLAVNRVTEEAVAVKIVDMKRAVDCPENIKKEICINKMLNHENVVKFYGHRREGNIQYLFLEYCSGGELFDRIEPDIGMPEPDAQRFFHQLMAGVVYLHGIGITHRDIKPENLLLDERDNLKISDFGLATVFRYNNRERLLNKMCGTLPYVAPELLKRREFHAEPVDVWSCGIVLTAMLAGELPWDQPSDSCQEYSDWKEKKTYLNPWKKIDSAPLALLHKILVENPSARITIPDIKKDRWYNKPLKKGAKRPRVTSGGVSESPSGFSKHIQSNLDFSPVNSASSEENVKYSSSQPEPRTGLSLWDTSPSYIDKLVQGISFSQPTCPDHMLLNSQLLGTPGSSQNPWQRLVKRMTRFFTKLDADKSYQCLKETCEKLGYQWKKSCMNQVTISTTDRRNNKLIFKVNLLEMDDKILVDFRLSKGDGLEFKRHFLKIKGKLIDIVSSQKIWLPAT
CYP3A4, sequence (P08684 whole entry): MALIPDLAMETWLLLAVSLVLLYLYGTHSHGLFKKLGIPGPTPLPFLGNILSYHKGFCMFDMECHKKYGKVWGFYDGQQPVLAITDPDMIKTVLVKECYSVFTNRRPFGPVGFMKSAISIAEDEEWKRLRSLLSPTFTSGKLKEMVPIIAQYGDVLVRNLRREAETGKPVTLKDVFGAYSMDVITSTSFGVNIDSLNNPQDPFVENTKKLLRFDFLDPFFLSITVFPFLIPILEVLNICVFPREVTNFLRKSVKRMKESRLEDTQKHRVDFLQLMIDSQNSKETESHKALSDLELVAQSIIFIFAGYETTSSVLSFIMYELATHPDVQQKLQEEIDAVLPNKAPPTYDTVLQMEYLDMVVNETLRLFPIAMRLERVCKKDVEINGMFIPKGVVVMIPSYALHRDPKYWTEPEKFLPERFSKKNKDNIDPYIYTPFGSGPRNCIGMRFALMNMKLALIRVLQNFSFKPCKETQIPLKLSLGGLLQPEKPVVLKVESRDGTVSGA
hERG current, sequence (Q12809 whole entry): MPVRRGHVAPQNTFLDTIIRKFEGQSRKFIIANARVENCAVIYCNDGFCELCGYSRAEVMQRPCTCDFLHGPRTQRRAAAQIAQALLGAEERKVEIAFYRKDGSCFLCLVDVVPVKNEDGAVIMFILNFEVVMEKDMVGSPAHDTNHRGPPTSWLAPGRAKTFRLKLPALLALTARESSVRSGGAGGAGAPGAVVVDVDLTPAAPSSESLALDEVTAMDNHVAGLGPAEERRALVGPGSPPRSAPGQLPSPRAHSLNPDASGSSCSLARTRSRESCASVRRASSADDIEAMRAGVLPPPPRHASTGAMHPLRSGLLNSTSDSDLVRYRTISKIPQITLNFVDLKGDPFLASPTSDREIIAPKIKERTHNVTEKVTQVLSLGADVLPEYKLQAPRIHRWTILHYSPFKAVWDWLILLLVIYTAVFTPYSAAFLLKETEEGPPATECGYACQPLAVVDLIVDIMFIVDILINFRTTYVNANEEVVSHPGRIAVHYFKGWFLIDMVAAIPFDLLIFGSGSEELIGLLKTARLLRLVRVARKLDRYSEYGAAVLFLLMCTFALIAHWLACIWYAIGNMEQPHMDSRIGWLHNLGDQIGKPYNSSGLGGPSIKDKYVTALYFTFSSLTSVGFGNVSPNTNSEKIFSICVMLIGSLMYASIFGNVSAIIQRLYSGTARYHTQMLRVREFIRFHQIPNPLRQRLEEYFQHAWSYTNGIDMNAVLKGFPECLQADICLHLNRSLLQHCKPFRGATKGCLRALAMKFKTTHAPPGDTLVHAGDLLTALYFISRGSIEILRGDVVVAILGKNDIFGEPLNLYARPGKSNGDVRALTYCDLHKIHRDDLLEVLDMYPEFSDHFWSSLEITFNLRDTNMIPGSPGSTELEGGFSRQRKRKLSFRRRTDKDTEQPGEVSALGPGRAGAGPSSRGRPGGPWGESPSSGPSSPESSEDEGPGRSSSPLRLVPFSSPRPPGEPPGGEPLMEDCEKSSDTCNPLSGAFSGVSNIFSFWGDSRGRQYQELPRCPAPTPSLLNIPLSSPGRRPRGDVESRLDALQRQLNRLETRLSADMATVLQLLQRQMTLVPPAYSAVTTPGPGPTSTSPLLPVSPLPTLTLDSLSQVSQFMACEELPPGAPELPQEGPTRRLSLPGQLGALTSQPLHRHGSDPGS
ARK5/NUAK1, sequence (O60285 whole entry): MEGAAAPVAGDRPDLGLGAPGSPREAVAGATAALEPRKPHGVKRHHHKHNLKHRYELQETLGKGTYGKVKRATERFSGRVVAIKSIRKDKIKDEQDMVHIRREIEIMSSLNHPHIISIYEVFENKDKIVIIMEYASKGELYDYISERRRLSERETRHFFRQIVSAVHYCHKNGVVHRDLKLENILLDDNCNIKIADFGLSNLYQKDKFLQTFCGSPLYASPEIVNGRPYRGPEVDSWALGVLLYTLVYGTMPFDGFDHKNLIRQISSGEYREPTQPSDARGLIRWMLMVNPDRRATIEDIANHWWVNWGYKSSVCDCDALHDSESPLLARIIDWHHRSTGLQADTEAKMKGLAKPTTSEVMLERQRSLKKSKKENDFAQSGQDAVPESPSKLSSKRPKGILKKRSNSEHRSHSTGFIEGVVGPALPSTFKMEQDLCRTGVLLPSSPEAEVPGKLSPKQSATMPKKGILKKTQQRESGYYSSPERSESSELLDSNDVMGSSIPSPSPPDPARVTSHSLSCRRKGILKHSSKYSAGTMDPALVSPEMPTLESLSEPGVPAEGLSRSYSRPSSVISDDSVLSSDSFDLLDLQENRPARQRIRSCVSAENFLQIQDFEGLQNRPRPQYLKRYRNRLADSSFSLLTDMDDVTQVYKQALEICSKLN

nivolumab
overall response rate [1]: 13.3%

Nc1ccn([C@@H]2O[C@H](CO)[C@@H](O)C2(F)F)c(=O)n1 [Gemcitabine]
CR (%) [2]: 0% | T/C (%) [2]: 9% | Ratio of residual neutrophils (%) [3]: 39%

COc1ccnc(OCCCN)c1-c1cc(Nc2cnc(C#N)cn2)n[nH]1 [Example 1, 5-({5-[2-(3-aminopropoxy)-4-methoxypyridin-3-yl]-1H-pyrazol-3-yl}amino)pyrazine-2-carbonitrile]
hERG/CHK1 [4]: >115000 | inhibition of CYP3A4 based on MBI [5]: do not exhibit inhibition of CYP3A4 based on MBI | Factor of change in IC50 value ([5]; human liver microsome, pre-incubation in the presence of NADPH): Not Detected | CHK1 inhibitory activity relative to prexasertib [6]: ≥ 5 fold | IC50 [6]: < 0.1 nM | effect of suppressing CHK1 activity compared with prexasertib [6]: more potent effect of suppressing CHK1 activity than prexasertib | encapsulation efficiency [7]: ≥ 80% | Encapsulation efficiency (%) [7, 15]: 87.4% | liquid viscosity during the liposome encapsulation procedure ([7]; pH adjusted by adding 1 mol/L hydrochloric acid): increase in viscosity was not found | liposome encapsulation efficiency [8]: ≥ 90% | Encapsulation efficiency (%) [8, 16]: 91.3% | Encapsulation efficiency (%) [8, 15]: 91.6% | Encapsulation efficiency (%) ([8]; concentration upon compound introduction 4 mg/mL): 92.2% | effect of suppressing human bone marrow cell colony formation [9]: does not exhibit an effect of suppressing human bone marrow colony formation | Colony count (/well) mean [9]: 34 /well | effect of suppressing myeloid cells induced to differentiate from human bone marrow cells [10]: does not exhibit an effect of suppressing myeloid cells induced to differentiate from human bone marrow cells | cell growth suppression effect compared with prexasertib [11]: excellent cell growth suppression effect that is equivalent to that of prexasertib | increase of ssDNA in cytoplasm [12]: 1.5 times | increase of ssDNA in cytoplasm [13]: 1.3 times

COc1cccc(OCCCN)c1-c1cc(Nc2cnc(C#N)cn2)n[nH]1 [Prexasertib, reference compound]
remaining activity at 0.1 µM [14]: 17.9% | inhibition of CYP3A4 based on MBI [5]: exhibits inhibition of CYP3A4 based on MBI | Compound concentration in liposome solution [7, 16]: 2160 µg/mL | effect of suppressing human bone marrow cell colony formation [9]: exhibits an effect of suppressing human bone marrow cell colony formation | Colony count (/well) mean [9]: 19 /well | effect of suppressing myeloid cells induced to differentiate from human bone marrow cells [10]: exhibited an effect of suppressing myeloid cells induced to differentiate from human bone marrow cells
